Where two headings read alike, the source gives them in different places.
Legend:
[1] = tested on: lsr expression in E. coli (lsr-lacZ reporter strains); experiment: QS response (lsr expression): AI-2 dependent β-galactosidase production, Miller assay; type: cell-based, Escherichia coli; details: for inhibition of AI-2-mediated lsr expression (β-galactosidase), in words: E. coli LW7 pLW11 (luxS−), 20 μM AI-2 (DPD) + 20 μM analog; for effect on native lsr expression (QS response): E. coli ZK126 pLW11 (luxS+), cells produce their own AI-2; for IC50: Escherichia coli
Experimental: (§1) The panel of C1-alkyl analogs was screened to identify QS modulators in the enteric bacteria E. coli and S. typhimurium. Transcription of the QS associated lsr operon, by using lsr-lacZ reporter strains (Table 2) which produce β-galactosidase in response to added AI-2 was monitored. In order to first establish if the analogs were agonists or antagonists in the QS circuit, the analogs were incubated with E. coli LW7 pLW11 and S. typhimurium MET715 (FIG. 19a-b) both of which are luxS^−. None of the analogs, except ethyl-DPD behaved as agonists for lsr expression. Previous studies investigating AI-2 antagonism in P. aeruginosa or in S. typhimurium were carried out using chemically synthesized AI-2 added to luxS^− cells. […] The same trends were obtained by adding a 1:1 ratio of enzymatically synthesized AI-2 and DPD analogs to the luxS^− strains E. coli LW7 pLW11 and S. typhimurium MET715 (FIG. 11a-b). None of the tested DPD analogs were bacteriocidal or bacteriostatic as the OD600 values of E. coli ZK126 pLW11 and S. typhimurium MET708 in the presence and absence of the analogs were similar (FIG. 10). Though the QS circuitry of the enteric organisms, E. coli and S. typhimurium are homologous they respond differently to the DPD analogs. The E. coli QS circuitry is susceptible to being silenced by a variety of DPD analogs of different shapes and sizes whereas in S. typhimurium, only a handful of DPD analogs could antagonize the action of AI-2. […] Isobutyl-DPD emerged as an effective and non-species-specific quencher; causing significant lsr expression knockdowns in both E. coli and S. typhimurium.
(§2) The QS response indicated by lsr gene expression was analyzed in pure culture studies by culturing E. coli LW7 pLW11, E. coli ZK126 pLW11 and S. typhimurium MET708, S. typhimurium MET715 overnight in LB medium supplemented with appropriate antibiotics as stated previously. These cells were then diluted into fresh LB medium (with antibiotics) and grown to an OD600 of 0.8-1.0 at 30° C., 250 rpm. Cells were then collected by centrifugation at 10,000×g for 10 minutes, and resuspended in 10 mM phosphate buffer. AI-2 (20 μM) and the respective analog (20 μM) were added to the E. coli or S. typhimurium suspension for 2 hours at 37° C. AI-2 dependent β-galactosidase production was quantified by the Miller assay.
(§3) The QS response indicated by lsr gene expression was analyzed in pure culture studies by culturing E. coli LW7 pLW11 and S. typhimurium MET715 overnight at 30° C. in LB medium supplemented with appropriate antibiotics as stated previously. These cells were then diluted into fresh LB medium (with antibiotics) and grown to an OD600 of 0.4-0.8 at 37° C., 250 rpm. Cells were then collected by centrifugation at 10,000×g for 10 min and resuspended in 10 mM phosphate buffer. AI-2 (20 μM) and the respective analog (20 μM) were added to the E. coli or S. typhimurium suspension for 2 h at 37° C. AI-2 dependent β-galactosidase production was quantified by the Miller assay.
(§4) The QS response indicated by lsr gene expression was analyzed in pure culture studies by culturing E. coli LW7 pLW11, E. coli ZK126 pLW11 and S. typhimurium MET708, S. typhimurium MET715 overnight in LB medium individually supplemented with appropriate antibiotics, as specified above. These cells were diluted into fresh LB medium (with antibiotics) and grown to an OD600 of 0.8-1.0 at 30° C., 250 rpm. Cells were collected by centrifugation at 10,000×g for 10 minutes, and resuspended in 10 mM phosphate buffer. AI-2 (20 μM) and the respective analog (20 μM) were added to the E. coli or S. typhimurium suspension for 2 hours at 37° C. AI-2 dependent β-galactosidase production was quantified by the Miller assay.

LsrK = molecular target: T1, LsrK (Escherichia coli, UniProt P77432); experiment: In vitro phosphorylation of analogs by LsrK (TLC, autoradiography); type: biochemical, E. coli; details: for phosphorylation by E. coli LsrK: incubation with LsrK in vitro for one hour (Example 6)
T1 construct: made in house; host or cells: E. coli BL21
Experimental: LsrK was purified and from E. coli BL21 pET200-LsrK as described before. Phosphorylated analogs were synthesized by incubating 1 μM) LsrK with 40 μM ATP (Roche), […] of [γ-^32P] […] A 5 μL aliquot was then spotted onto a cellulose TLC plate (Selecto Scientific). The plate was developed using 0.8 M LiCl as the solvent, air dried and developed via autoradiography.
LsrK was purified from E. coli BL21 pET200-LsrK as described before. Phosphorylated analogs were synthesized by incubating (1 μM) LsrK with (40 μM) ATP (Roche), ([…]) of [P^32] […] An aliquot (2.5 μL) was then spotted onto a cellulose TLC plate (Selecto Scientific). The plate was developed using 0.8 M LiCl as the solvent, air dried and developed via autoradiography.

[2] = tested on: lsr expression in S. typhimurium (lsr-lacZ reporter strains); experiment: QS response (lsr expression): AI-2 dependent β-galactosidase production, Miller assay; type: cell-based, Salmonella typhimurium; details: for effect on AI-2-mediated lsr expression (β-galactosidase), in words: S. typhimurium MET715 (luxS−), 20 μM AI-2 (DPD) + 20 μM analog
Experimental: as §1, §2, §3, §4

[3] = tested on: pre-formed E. coli biofilms (K-12 MG1655); experiment: Effects on pre-formed E. coli biofilms (microfluidic flow cell, COMSTAT, optical density); type: cell-based
Experimental: (§5) The E. coli biofilms were formed using the strain K-12 MG1655 ATCC(47076). P. aeruginosa biofilms were formed using wild type strain PAO1. For both strains, overnight cultures were diluted to an OD600 of 0.25, introduced into the microfluidic channel, and incubated with no flow at 37° C. for 2 h. LB (Luria Bertani) growth medium was then continuously flowed into the device at a rate of 10 μL/hr. As needed, this medium was supplemented with various concentrations of analog or antibiotic at specified times. In studies of biofilm inhibition, after 2 hours of cell incubation, the analog diluted in LB medium is flown into the microfluidic channel for 48 hours at 10 μL/hr. In studies of effects on pre-formed biofilms, LB is introduced over the cells at 10 μL/hr for a period of 36 to 48 hours to yield stable biofilms. Then, the analog or analog-antibiotic combination was introduced for an additional 36 to 48 hours.
(§6) Biofilms were stained in situ for microscopy. They were first treated with a Live/Dead bacterial labeling kit (Invitrogen #L7012) in which two labeling components were mixed in a 1:1 ratio to a final volume of 10 μL. The dye was introduced into the channel at 10 μL/hr, the same flow rate as during biofilm growth. This treatment was then followed by 10 μL/hr of a 100 μg/mL calcofluor (Fluorescence Brightener 28, Sigma #F3543) solution for labeling polysaccharides contained in the biofilm matrix. The dyes are fixed by flowing in 3% paraformaldehyde at the same flow rate.
(§7) Labeled samples are imaged using a confocal microscope (Zeiss LSM710). For unpatterned coverslips, Z-stacks were obtained at 7 points in each microfluidic channel, each stack was comprised of 150 slices. For patterned coverslips used while measuring the optical density of the biofilms, two stacks were obtained in each channel (i.e. one at each pinhole). The image stacks were analyzed using COMSTAT, which provides morphological characteristics. Average biofilm thickness and biomass were averaged over the image stacks obtained at each of these 7 data points in the microfluidic channel. Additionally, surface reconstructions of the biofilms were created using Imaris (Bitplane) to aid in visualization of the resulting structures.
(§8) The data corresponding to the change in optical density of the biofilms were obtained from the photodiodes using the standard methodologies. Data for each channel (the average of the response of the two photodiodes) was normalized with respect to the optical density at 48 hours; this method reflects that as of 48 hours, the biofilms have been grown under identical conditions although their optical density values may not be identical. Additionally, since the optical density data itself fluctuates as the biofilm grows, the data for each curve was fitted using a Churchill model (Churchill et al, 1972), represented by log N=[f1^−1+f2^−1]^−1 (1)

[4] = tested on: pre-formed P. aeruginosa biofilms (PAO1); experiment: Effects on pre-formed P. aeruginosa biofilms (microfluidic flow cell, COMSTAT, optical density); type: cell-based; details: gentamicin alone
Experimental: as §5, §6, §7, §8

E. coli = experiment: DPD analogs and representative bacterial species affected (Table 1); type: cell-based; parameters: key: x: DPD Analogs and representative bacterial species affected
V. harveyi = experiment: as above; type: cell-based; parameters: key: x: DPD Analogs and representative bacterial species affected

T1 sequence (P77432 whole entry): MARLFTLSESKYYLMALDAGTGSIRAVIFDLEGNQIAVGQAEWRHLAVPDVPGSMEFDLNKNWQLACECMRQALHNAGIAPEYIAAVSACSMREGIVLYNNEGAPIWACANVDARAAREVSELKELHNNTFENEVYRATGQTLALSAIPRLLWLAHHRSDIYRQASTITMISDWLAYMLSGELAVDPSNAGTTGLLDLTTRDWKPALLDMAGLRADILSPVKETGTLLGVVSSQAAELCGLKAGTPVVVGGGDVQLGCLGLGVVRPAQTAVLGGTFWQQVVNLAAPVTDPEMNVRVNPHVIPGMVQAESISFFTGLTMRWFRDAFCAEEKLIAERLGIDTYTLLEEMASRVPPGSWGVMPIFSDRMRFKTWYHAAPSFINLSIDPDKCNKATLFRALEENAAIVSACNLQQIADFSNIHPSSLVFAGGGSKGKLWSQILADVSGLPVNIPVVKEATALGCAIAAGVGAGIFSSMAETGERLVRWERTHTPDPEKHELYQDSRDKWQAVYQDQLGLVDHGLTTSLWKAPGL

O=C(C(=O)C1CCCCCC1)C(O)CO (stereo not shown) [Cycloheptyl-DPD, Cycloheptyl DPD]
inhibition of AI-2-mediated lsr expression (β-galactosidase), in words [1]: nor did they affect LsrR-controlled transcription | phosphorylation by E. coli LsrK (LsrK): Neither Cycloheptyl-DPD nor the aromatic analogs were phosphorylated | phosphorylation by E. coli LsrK (LsrK; listed as cycloheptyl): not phosphorylated

CCCC(=O)OCC(OC(=O)CCC)C(=O)C(=O)CC(C)C (stereo not shown) [Compound 24, 6-methyl-3,4-dioxoheptane-1,2-diyl dibutyrate]
inhibition of AI-2-mediated lsr expression (β-galactosidase), in words [1]: as effective QS quenchers as the unprotected isobutyl DPD

O=C(C(=O)C(O)CO)c1ccc(F)cc1 (stereo not shown) [fluorophenyl, 4-fluorophenyl DPD]
inhibition of AI-2-mediated lsr expression (β-galactosidase), in words [1]: no

O=C(C(=O)C(O)CO)c1ccc([N+](=O)[O-])cc1 (stereo not shown) [Nitrophenyl-DPD, 4-nitrophenyl DPD]
effect on AI-2-mediated lsr expression (β-galactosidase), in words [2]: increased QS response | inhibition of AI-2-mediated lsr expression (β-galactosidase), in words [1]: no

gentamicin [reference compound]
drop of biofilm biomass ([3]; gentamicin 5 μg/ml without AI-2 analog): ~50% | average biofilm biomass ([3]; gentamicin 5 μg/ml without AI-2 analog, LB only 8.5 μm^3/μm^2): 3.5 μm^3/μm^2 | average biofilm thickness ([3]; gentamicin 5 μg/ml without AI-2 analog, LB only 12 μm): 10 μm | course of biofilm optical density after 48 h, in words ([3]; gentamicin alone, continuous optical density measurement): slowed the progress of biofilm maturation | biofilm reduction [4]: ~0% | course of biofilm optical density after 48 h, in words ([4]; continuous optical density measurement): slowed the progress of biofilm maturation

CCCC(=O)C(=O)[C@@H](O)CO [propyl-DPD]
bacterial species affected: E. coli (E. coli): x | effect on native lsr expression (QS response) [1]: significant knockdown | bacterial species affected: V. harveyi (V. harveyi): x

CCCCCC(=O)C(=O)[C@@H](O)CO [Pentyl DPD]
bacterial species affected: E. coli (E. coli): x | bacterial species affected: V. harveyi (V. harveyi): x

deoxy-isobutyl-DPD
effect on native lsr expression (QS response) [1]: unable to silence the lsr operon

CC(=O)C(=O)C(O)CO (stereo not shown) [AI-2, 4,5-dihydroxy-2,3-pentanedione, reference compound]
more LacZ present than without AI-2 ([2]; S. typhimurium MET715 (LuxS−), 20 μM AI-2 added): about 30%

O=C(C(=O)C1CC1)C(O)CO (stereo not shown) [cyclopropyl-DPD]
effect on native lsr expression (QS response) [1]: neither an lsr agonist nor antagonist | phosphorylation by LsrK (LsrK; incubation with LsrK and excess ATP for 2 hours (Example 1)): phosphorylated

CC(=O)OCC(OC(C)=O)C(=O)C(=O)CC(C)C (stereo not shown) [Compound 23, 6-methyl-3,4-dioxoheptane-1,2-diyl diacetate]
inhibition of AI-2-mediated lsr expression (β-galactosidase), in words [1]: as effective QS quenchers as the unprotected isobutyl DPD

2-methylpropyl-DPD
effect on native lsr expression (QS response) [1]: substantial reduction

CH2-cyclohexyl-DPD
inhibition of AI-2-mediated lsr expression (β-galactosidase), in words [1]: attenuated lsr expression in E. coli to a lesser extent | phosphorylation by E. coli LsrK (LsrK): weakly phosphorylated | phosphorylation by E. coli LsrK (LsrK; listed as CH2-cyclohexyl): not phosphorylated

CCCCCC(=O)OCC(OC(=O)CCCCC)C(=O)C(=O)CC(C)C (stereo not shown) [Compound 26, 6-methyl-3,4-dioxoheptane-1,2-diyl dihexanoate]
inhibition of AI-2-mediated lsr expression (β-galactosidase), in words [1]: abrogated

CCCCC(=O)OCC(OC(=O)CCCC)C(=O)C(C)=O (stereo not shown) [Compound 21, 3,4-dioxopentane-1,2-diyl dipentanoate]
induction of lsr expression (β-galactosidase) ([2]; S. typhimurium MET715 (LuxS−), 20 μM compound, no AI-2 added): as effective as DPD

CC(C)(C)CC(=O)C(=O)C(O)CO (stereo not shown) [neopentyl-DPD]
effect on native lsr expression (QS response) [1]: substantial reduction

CCCCC(=O)OCC(OC(=O)CCCC)C(=O)C(=O)CC(C)C (stereo not shown) [Compound 25, 6-methyl-3,4-dioxoheptane-1,2-diyl dipentanoate]
inhibition of AI-2-mediated lsr expression (β-galactosidase), in words [1]: reduced

CCCCCCC(=O)C(=O)[C@@H](O)CO [Hexyl DPD]
bacterial species affected: E. coli (E. coli): x | bacterial species affected: V. harveyi (V. harveyi): x

O=C(C(=O)C1CCCC1)C(O)CO (stereo not shown) [Cyclopentyl-DPD, Cyclopentyl DPD]
effect on AI-2-mediated lsr expression (β-galactosidase), in words [2]: increased expression | bacterial species affected: E. coli (E. coli): x | reduction in lsr promoter activity ([1]; E. coli LW7, 20 μM DPD + 20 uM analog): over 60% | inhibition of AI-2-mediated lsr expression (β-galactosidase), in words [1]: inhibit lsr expression | IC50 ([1]; Example 6, read-out: IC50 (lsr expression in E. coli)): 2400 nM | IC50 ([1]; concentration reducing lsr expression (β-galactosidase production) to 50% in the presence of 20 μM exogenously added synthetic DPD, read-out: IC50 of analog (nM) to inhibit QS in E. coli): 2440 nM | phosphorylation by E. coli LsrK (LsrK): significantly phosphorylated

Reference: patent publication US8952192B2, “Phosphorylated and branched dihydroxy-pentane-dione (DPD) analogs as quorum sensing inhibitors in bacteria” (University of Maryland, College Park, priority 2011, dated 2015)
